Test systems include NCI-H522; SF-268; RPMI-8226; A498; MCF7; SK-OV-3; OVCAR-3; U-251; MOLT-4; HOP-92; HT-29; DMS-273; IGROV-1; HCT-116; RXF 393; SF-295; UACC-257; M14.
What all share (assay): NCI anticancer screen, dose series, 48 h

The text below walks through data of ChEMBL document CHEMBL1201862, “PubChem BioAssay data set” (2004).

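Tested at 5 concentrations; 48 h exposure; 96-well plates; endpoints linearly interpolated, else capped at highest concentration. Here, GI50 denotes the concentration required for 50% inhibition of growth.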 The source made the active and inactive calls. Cut-off read from the data, not from the text of the source: active = GI50 up to about 1.1 µM and inactive = higher. A value given as a limit tells only on which side of the number the result lay.

As for `O=C(NN1C(=O)CS(=O)(=O)C1c1ccc(Cl)c(Cl)c1)c1ccncc1` (stereo unspecified), the GI50 with NCI-H522 is 66.1 µM (inactive); with SF-268, > 81.5 µM (inactive); in the assay with RPMI-8226 it was > 41.7 µM (inactive); with A498, > 90.4 µM (inactive); in the assay on MCF7, 98.2 µM (inactive); in the assay on SK-OV-3, 57.5 µM (inactive). Further, the GI50 was > 90.8 µM (inactive) in the assay with OVCAR-3; > 100 µM (inactive) in the assay with U-251; > 40.3 µM (inactive) with MOLT-4; > 100 µM (inactive) with HOP-92; > 71.3 µM (inactive) in the assay on HT-29; > 31.6 µM (inactive) in the assay with DMS-273. Moreover, the GI50 is > 100 µM (inactive) in the assay on IGROV-1; > 87.7 µM (inactive) in the assay on HCT-116; > 69 µM (inactive) in the assay with RXF 393; > 87.5 µM (inactive) with SF-295; > 100 µM (inactive) in the assay with UACC-257.
Turning to `O=c1[nH]c(=O)n(C2CC(O)C(CO)O2)cc1C(OCC(F)(F)F)OCC(F)(F)F` (stereo unspecified), the GI50 in the assay with NCI-H522, in the assay with SF-268, in the assay on RPMI-8226, in the assay on A498, with SK-OV-3 and in the assay on OVCAR-3 was > 100 µM (inactive) each time. In addition, the GI50 in the assay on U-251, in the assay with MOLT-4, in the assay on HOP-92, in the assay with HT-29, in the assay with DMS-273 and with IGROV-1 was > 100 µM (inactive) in each case. For the same compound, the GI50 with RXF 393, in the assay with SF-295, with M14 and with UACC-257 was > 100 µM (inactive) in each case.
Take `CN(C)C(=S)/N=c1\ssc(=S)n1C`: the GI50 in the assay on NCI-H522, in the assay with SF-268, in the assay with RPMI-8226, in the assay on A498, with SK-OV-3 and in the assay with U-251 was > 100 µM (inactive) each time. For the same compound, the GI50 with MOLT-4, in the assay on HOP-92, with HT-29, in the assay on DMS-273, with IGROV-1 and in the assay on HCT-116 was > 100 µM (inactive) each time. Further, the GI50 in the assay on RXF 393, in the assay with SF-295, in the assay with M14 and in the assay on UACC-257 was > 100 µM (inactive) throughout.
Consider `O=[N+]([O-])c1ccc2[nH]c3c(-c4ccccc4)nccc3c2c1`, for which the GI50 in the assay with NCI-H522 is 14.3 µM (inactive); in the assay on SF-268, 25 µM (inactive); in the assay with RPMI-8226, 0.796 µM (active); in the assay with A498 it was 82.6 µM (inactive); in the assay with MCF7, 24.8 µM (inactive); in the assay on SK-OV-3, 12.9 µM (inactive). Further, the GI50 is 14.3 µM (inactive) in the assay on OVCAR-3; 19.5 µM (inactive) in the assay on U-251; 2.31 µM (inactive) in the assay on MOLT-4; 16.3 µM (inactive) with HOP-92; 10.7 µM (inactive) with HT-29; 11.9 µM (inactive) in the assay on DMS-273. Further, the GI50 is 7.03 µM (inactive) in the assay with IGROV-1; 17.1 µM (inactive) in the assay on HCT-116; 25.4 µM (inactive) with RXF 393; 18 µM (inactive) with SF-295; 30 µM (inactive) with UACC-257.
As for `C[N+](C)([O-])CCOc1cc2c(c3ccccc13)-c1ccccc1C2=O`, the GI50 in the assay with NCI-H522 is 10.2 µM (inactive); in the assay on SF-268 it was 10.9 µM (inactive); in the assay on RPMI-8226, 12.3 µM (inactive); in the assay with A498, 20.3 µM (inactive); in the assay with MCF7 it was 11.7 µM (inactive); in the assay on SK-OV-3 it was 35.4 µM (inactive). The GI50 in the assay with OVCAR-3 is 11.7 µM (inactive); in the assay on U-251, 13.3 µM (inactive); with MOLT-4, 3.46 µM (inactive); with HOP-92, 7.66 µM (inactive); with HT-29, 7.46 µM (inactive); in the assay with DMS-273, 16.3 µM (inactive). In addition, the GI50 in the assay on IGROV-1 was 19.1 µM (inactive); in the assay on HCT-116 it was 6.25 µM (inactive); in the assay with RXF 393, 17.7 µM (inactive); in the assay on SF-295 it was 4.63 µM (inactive); in the assay with UACC-257, 6.65 µM (inactive).
Take `O=C(O)C12CCCCC1CCCC2` (stereo unspecified): the GI50 in the assay on NCI-H522, in the assay on SF-268, in the assay with RPMI-8226, in the assay with A498, in the assay on SK-OV-3 and in the assay on OVCAR-3 was > 100 µM (inactive) in each case. For the same compound, the GI50 in the assay with U-251, in the assay on MOLT-4, in the assay with HOP-92, with HT-29, with DMS-273 and in the assay on IGROV-1 was > 100 µM (inactive) throughout. Further, the GI50 in the assay with HCT-116, in the assay on SF-295 and with M14 was > 100 µM (inactive) throughout.
For the compound `COc1c(Br)cc(CC(N)=O)c(O)c1Br`, the GI50 in the assay on NCI-H522, in the assay with SF-268, in the assay on A498, with SK-OV-3, with OVCAR-3 and in the assay with U-251 was > 100 µM (inactive) each time. In addition, the GI50 with MOLT-4, with HOP-92, in the assay with HT-29, in the assay on DMS-273, with IGROV-1 and with HCT-116 was > 100 µM (inactive) throughout. Further, the GI50 with RXF 393, in the assay on SF-295 and in the assay on UACC-257 was > 100 µM (inactive) throughout.
For `CN(C)CCNC(=O)c1cccc2ccc(-c3ccc(F)cc3)nc12`, the GI50 with NCI-H522 is 3.91 µM (inactive); in the assay with SF-268 it was 5.27 µM (inactive); with RPMI-8226, 3.31 µM (inactive); in the assay with A498 it was 7.1 µM (inactive); in the assay with MCF7 it was 3.56 µM (inactive); with SK-OV-3, 7.62 µM (inactive). In addition, the GI50 in the assay with OVCAR-3 is 6.89 µM (inactive); with U-251 it was 6.19 µM (inactive); in the assay on MOLT-4, 1.94 µM (inactive); in the assay on HOP-92, 4.25 µM (inactive); with HT-29, 3.3 µM (inactive); in the assay with DMS-273 it was 2.82 µM (inactive). The GI50 in the assay with IGROV-1 is 4.16 µM (inactive); in the assay with HCT-116 it was 3.03 µM (inactive); in the assay on RXF 393 it was 7.38 µM (inactive); in the assay with SF-295 it was 5.7 µM (inactive); in the assay on UACC-257, 5.51 µM (inactive).
Turning to `COc1nc(SC)nc2c1cnn2C1OC(C(O)CO)C(OC)C1O` (stereo unspecified), the GI50 in the assay with NCI-H522 is > 100 µM (inactive); in the assay on SF-268 it was > 92.7 µM (inactive); in the assay with RPMI-8226, 63.8 µM (inactive); in the assay on A498, > 100 µM (inactive); in the assay on MCF7 it was > 62.4 µM (inactive); with SK-OV-3, > 100 µM (inactive). Moreover, the GI50 in the assay with OVCAR-3 is 99.3 µM (inactive); in the assay on U-251 it was > 100 µM (inactive); in the assay with MOLT-4 it was 14 µM (inactive); in the assay with HT-29, 52.4 µM (inactive); in the assay with DMS-273, > 100 µM (inactive); in the assay with IGROV-1 it was > 100 µM (inactive). For the same compound, the GI50 in the assay with HCT-116 was 78.2 µM (inactive); in the assay on RXF 393, > 83.2 µM (inactive); in the assay on SF-295, > 100 µM (inactive); in the assay on UACC-257 it was > 75.7 µM (inactive).
